Earlier results in patent US20150182483A1 (priority 2014, published 2015).

Experiments:
[1] = prior art, Kalogeropoulou et al. 2009
[2] = pH at which two predominant microspecies have net charge of zero
[3] = intravenous, subjects
[4] = humans
[5] = tested on: chemical diabetes induced by streptozotocin
[6] = D-lysine treatment with streptozotocin diabetes

Row | SMILES | Response (hypoglycemic effect) [1] | Isoelectric point (pI) [2] | Effect on blood ammonia [3] | Effect on blood glucose [3] | Proposed upper limit (LD 50 not firmly established) [4] | Blood glucose [5, 6] [mmol/L] | Glycated lens proteins [5, 6] [%] | Glycated serum proteins [5, 6] [%] | HbA1 [5, 6] [%] | Urinary d-lysine [5, 6] [mmol/L] | Excretion ([5]; animal model) | Nephrotoxicity ([5]; animal model) | non-enzymatic glycation of hemoglobin, lens proteins and serum proteins ([5]; animal model of chemical diabetes induced by streptozotocin)
1 | NCCCC[C@H](N)C(=O)O [L-lysine] | Lower blood glucose | approximately 9.7 | without significantly increasing blood ammonia | lowers blood glucose | 300-400 mg×kg^−1xd^−1 | – | – | – | – | – | – | – | –
2 | NCCCC[C@@H](N)C(=O)O [D-lysine] | – | – | – | – | – | 25.1 | 4.90 | 1.4 | 3.0 | 15.9 | excreted in the urine | not nephrotoxic | decrease
